Common to all, as to type: functional, cell-based
Assay [1] has as its system HT-29. Nature of the assay: Antiproliferative activity against human HT-29 cells assessed as cell growth inhibition measured after 48 hrs by SRB assay. As to conditions: HT-29, 48 h, read-out: IC50. Background: Sulforhodamine B stains cellular protein and so reports cell mass.
The subject of assay [2] is M21. The assay can be described thus: Antiproliferative activity against human M21 cells assessed as cell growth inhibition measured after 48 hrs by SRB assay. As to conditions: M21, 48 h.
In assay [3] the test system is HT-29. Nature of the assay: Antiproliferative activity against human HT-29 cells assessed as cell growth inhibition measured after 48 hrs in presence of uridine by SRB assay. As to conditions: HT-29, 48 h.
Assay [4] concerns M21. Nature of the assay: Antiproliferative activity against human M21 cells assessed as cell growth inhibition measured after 48 hrs in presence of uridine by SRB assay. The settings on record: M21, 48 h.
Assay [5] concerns HT-1080. Nature of the assay: Antiproliferative activity against human HT-1080 cells assessed as cell growth inhibition measured after 48 hrs in presence of uridine by SRB assay. As to conditions: HT-1080, 48 h.
Assay [6] concerns MCF7. The assay can be described thus: Antiproliferative activity against human MCF7 cells assessed as cell growth inhibition measured after 48 hrs in presence of uridine by SRB assay. The settings on record: MCF7, 48 h.
Assay [7] has as its system HT-1080. The assay can be described thus: Antiproliferative activity against human HT-1080 cells assessed as cell growth inhibition measured after 48 hrs by SRB assay. As to conditions: HT-1080, 48 h.
Assay [8] concerns MCF7. The assay can be described thus: Antiproliferative activity against human MCF7 cells assessed as cell growth inhibition measured after 48 hrs by SRB assay. The settings on record: MCF7, 48 h, read-out: IC50.

With `Cc1oncc1C(=O)Nc1ccc(C(F)(F)F)cc1` [LEFLUNOMIDE], the IC50 (commonly the concentration at which inhibition is half-maximal) in the assay on HT-29 [1] stood at 75 µM; in the assay with M21 [2], 83 µM; in the assay on HT-29 [3] it was 75 µM; in the assay on M21 [4] it was 83 µM; in the assay with HT-1080 [5], 38 µM; with MCF7 [6], 57 µM. The IC50 amounted to 30 µM with HT-1080 [7] and 55 µM with MCF7 [8].
